{"source": "ChEMBL document CHEMBL5131473", "about": "“One-pot synthesis of oxoaporphines as potent antitumor agents and investigation of their mechanisms of actions” (Eur J Med Chem, 2022)", "key": {"[1]": {"tested_on": "T-24", "test": "Inhibition of colony formation in human T24 cells at 0.08 uM incubated for 24 hrs and measured for 10 days", "type": "functional, cell-based"}, "[2]": {"tested_on": "T-24", "test": "Cytotoxicity against human T24 cells assessed as decrease in cell viability at 2 uM by MTT assay", "type": "toxicity, cell-based", "conditions": "t-24, 72 h, TDE = time-dependent effect"}, "[3]": {"tested_on": "T-24", "test": "Induction of mitochondrial Ca2+ production in human T24 cells assessed as increase in intracellular Ca2+ concentration at 2 uM by Rhod2-AM staining based fluorescence microscopic method", "type": "functional, cell-based"}, "[4]": {"tested_on": "T-24", "test": "Induction of apoptosis in human T24 cells assessed as contracted small fragmented nuclei at 2 uM by Hoechst33258 staining based fluorescence microscopy", "type": "functional, cell-based"}, "[5]": {"tested_on": "T-24", "test": "Induction of cell cycle arrest in human T24 cells assessed as upregulation of CDK2 expression at 2 to 4 uM incubated for 24 hrs by chemiluminescence based Western blotting analysis", "type": "functional", "conditions": "dose 2-4 µM"}, "[6]": {"tested_on": "T-24", "test": "Induction of apoptosis in human T24 cells assessed as early apoptotic cells at 4 uM incubated for 24 hrs by Annexin-V/PI staining based flow cytometry analysis (reference value: 3.27 %)", "type": "functional"}, "[7]": {"tested_on": "T-24", "test": "Induction of apoptosis in human T24 cells assessed as late apoptotic cells at 4 uM incubated for 24 hrs by Annexin-V/PI staining based flow cytometry analysis (reference value: 0.543 %)", "type": "functional"}, "[8]": {"tested_on": "T-24", "test": "Induction of cell cycle arrest in human T24 cells assessed as accumulation of cells at G2/M phase at 2 uM incubated for 24 hrs by propidium iodide/RNase A staining based flow cytometry analysis (reference value: 5.82 %)", "type": "functional"}, "[9]": {"tested_on": "T-24", "test": "Inhibition of colony formation in human T24 cells at 0.16 uM incubated for 24 hrs and measured for 10 days", "type": "functional, cell-based"}, "[10]": {"tested_on": "T-24", "test": "Induction of mitochondrial membrane potential dysfunction in human T24 cells assessed as nuclear condensation at 2 to 4 uM by mito-tracker green dye based fluorescence microscopy", "type": "functional, cell-based", "conditions": "dose 2-4 µM"}, "[11]": {"tested_on": "T-24", "test": "Induction of mitochondrial membrane potential dysfunction in human T24 cells assessed as shrinking mitochondria at 0.5 uM incubated for 24 hrs by TEM analysis", "type": "functional, cell-based"}, "[12]": {"tested_on": "T-24", "test": "Induction of apoptosis in human T24 cells assessed as increase in caspase 9 activity at 0.5 uM (Rvb= 7.2%)", "type": "functional"}, "[13]": {"tested_on": "T-24", "test": "Induction of Ca2+ production in human T24 cells assessed as increase in intracellular Ca2+ concentration at 0.5 uM by Fluo3-AM staining based fluorescence microscopic method", "type": "functional, cell-based"}, "[14]": {"tested_on": "T-24", "test": "Induction of apoptosis in human T24 cells assessed as late apoptotic cells at 1 uM incubated for 24 hrs by Annexin-V/PI staining based flow cytometry analysis (reference value: 0.543 %)", "type": "functional"}, "[15]": {"tested_on": "T-24", "test": "Induction of cell cycle arrest in human T24 cells assessed as accumulation of cells at G1 phase at 0.5 uM incubated for 24 hrs by propidium iodide/RNase A staining based flow cytometry analysis (reference value: 51.71 %)", "type": "functional"}, "[16]": {"tested_on": "T-24", "test": "Induction of cell cycle arrest in human T24 cells assessed as increase in Cyclin B expression at 0.5 to 1 uM incubated for 24 hrs by chemiluminescence based Western blotting analysis", "type": "functional", "conditions": "dose 0.5-1 µM, DDE = dose-dependent effect"}, "[17]": {"tested_on": "T-24", "test": "Induction of cell cycle arrest in human T24 cells assessed as accumulation of cells at G1 phase at 1 uM incubated for 24 hrs by propidium iodide/RNase A staining based flow cytometry analysis (reference value: 51.71 %)", "type": "functional"}, "[18]": {"tested_on": "T-24", "test": "Cytotoxicity against human T24 cells assessed as decrease in cell viability at 0.5 uM by MTT assay", "type": "functional, cell-based", "conditions": "TDE = time-dependent effect"}, "[19]": {"tested_on": "T-24", "test": "Induction of mitochondrial membrane potential dysfunction in human T24 cells assessed as decrease in ATP production at 1 uM", "type": "functional", "parameters": "scale not given: the % may be the effect or the level left"}, "[20]": {"tested_on": "T-24", "test": "Induction of apoptosis in human T24 cells assessed as viable cells at 1 uM incubated for 24 hrs by Annexin-V/PI staining based flow cytometry analysis (reference value: 94.3 %)", "type": "functional", "conditions": "read-out: Activity"}, "[21]": {"tested_on": "T-24", "test": "Inhibition of colony formation in human T24 cells 0.2 to 10 uM incubated for 24 hrs and measured for 10 days", "type": "functional, cell-based", "conditions": "dose 0.2-10 µM"}, "[22]": {"tested_on": "T-24", "test": "Induction of apoptosis in human T24 cells assessed as increase in caspase 3 activity at 10 uM (Rvb= 3.1%)", "type": "functional"}, "[23]": {"tested_on": "T-24", "test": "Induction of mitochondrial membrane potential dysfunction in human T24 cells assessed as mitochondrial fragment condensation at 10 to 15 uM by mito-tracker green dye based fluorescence microscopy", "type": "functional, cell-based", "conditions": "dose 10-15 µM"}, "[24]": {"tested_on": "T-24", "test": "Induction of mitochondrial membrane potential dysfunction in human T24 cells assessed as disappearance of cristae at 10 uM incubated for 24 hrs by TEM analysis", "type": "functional, cell-based"}, "[25]": {"tested_on": "T-24", "test": "Induction of apoptosis in human T24 cells assessed as early apoptotic cells at 15 uM incubated for 24 hrs by Annexin-V/PI staining based flow cytometry analysis (reference value: 3.27 %)", "type": "functional"}, "[26]": {"tested_on": "T-24", "test": "Induction of DNA damage in human T24 cells assessed as increase in gamma H2AX expression at 10 to 15 uM incubated for 24 hrs by Western blot analysis", "type": "functional, cell-based", "conditions": "dose 10-15 µM"}, "[27]": {"tested_on": "T-24", "test": "Induction of apoptosis in human T24 cells assessed as condensation of nuclei at 10 uM by Hoechst33258 staining based fluorescence microscopy", "type": "functional, cell-based"}, "[28]": {"tested_on": "T-24", "test": "Induction of DNA damage in human T24 cells assessed as increase in gamma H2AX phosphorylation at 10 uM incubated for 24 hrs by Hoechst33258 staining based immunofluorescence assay", "type": "functional, cell-based"}, "[29]": {"tested_on": "T-24", "test": "Induction of mitochondrial membrane potential dysfunction in human T24 cells assessed as depolarised cells at 10 uM incubated for 24 hrs by JC-1 staining based flow cytometry (reference value: 6.20%)", "type": "functional"}, "[30]": {"tested_on": "T-24", "test": "Induction of mitochondrial membrane potential dysfunction in human T24 cells assessed as increase in fragmentation at 10 uM incubated for 24 hrs by TEM analysis", "type": "functional, cell-based"}, "[31]": {"tested_on": "T-24", "test": "Induction of cell cycle arrest in human T24 cells assessed as accumulation of cells at S phase at 10 uM incubated for 24 hrs by propidium iodide/RNase A staining based flow cytometry analysis (reference value: 42.47 %)", "type": "functional"}, "[32]": {"tested_on": "T-24", "test": "Induction of apoptosis in human T24 cells assessed as viable cells at 10 uM incubated for 24 hrs by Annexin-V/PI staining based flow cytometry analysis (reference value: 94.3 %)", "type": "functional", "conditions": "read-out: Activity"}, "[33]": {"tested_on": "T-24", "test": "Induction of mitochondrial mediated apoptosis in human T24 cells assessed as upregulation of apaf-1 expression at 10 to 15 uM incubated for 24 hrs by Western blotting analysis", "type": "functional, cell-based", "conditions": "dose 10-15 µM"}, "[34]": {"tested_on": "T-24", "test": "Induction of mitochondrial membrane potential dysfunction in human T24 cells assessed as nuclear condensation at 10 to 15 uM by mito-tracker green dye based fluorescence microscopy", "type": "functional, cell-based", "conditions": "dose 10-15 µM"}, "[35]": {"tested_on": "T-24", "test": "Induction of DNA damage in human T24 cells assessed as DNA strand breakage by measuring comet formation at 10 uM incubated for 24 hrs by comet assay", "type": "functional, cell-based"}, "[36]": {"tested_on": "T-24", "test": "Induction of mitochondrial mediated apoptosis in human T24 cells assessed as decrease in Bcl-2 protein expression at 10 to 15 uM incubated for 24 hrs by Western blotting analysis", "type": "functional, cell-based", "conditions": "dose 10-15 µM"}, "[37]": {"tested_on": "T-24", "test": "Induction of apoptosis in human T24 cells assessed as necrotic cells at 10 uM incubated for 24 hrs by Annexin-V/PI staining based flow cytometry analysis (reference value: 1.92 %)", "type": "functional"}}, "note": "The source made the active and inactive calls. No cut-off for these calls is given here.", "data": [{"smiles": "O=C1c2cc([N+](=O)[O-])ccc2-c2ccc([N+](=O)[O-])c3ccnc1c23", "values": [{"measurement": "inhibition", "setting": "[1]", "result": "Active"}, {"measurement": "Activity", "setting": "[2]", "result": "Tde"}, {"measurement": "Activity", "setting": "[3]", "result": "Active"}, {"measurement": "Activity", "setting": "[4]", "result": "Active"}, {"measurement": "Activity", "setting": "[5]", "result": "Active"}, {"measurement": "Activity", "setting": "[6]", "result": 32.3, "unit": "%"}, {"measurement": "Activity", "setting": "[7]", "result": 5.49, "unit": "%"}, {"measurement": "Activity", "setting": "[8]", "result": 33.02, "unit": "%"}, {"measurement": "inhibition", "setting": "[9]", "result": "Active"}, {"measurement": "Activity", "setting": "[10]", "result": "Active"}]}, {"smiles": "O=C1c2ccccc2-c2ccc([N+](=O)[O-])c3ccnc1c23", "values": [{"measurement": "Activity", "setting": "[11]", "result": "Active"}, {"measurement": "Activity", "setting": "[12]", "result": 26.9, "unit": "%"}, {"measurement": "Activity", "setting": "[13]", "result": "Active"}, {"measurement": "Activity", "setting": "[14]", "result": 6.25, "unit": "%"}, {"measurement": "Activity", "setting": "[15]", "result": 0.58, "unit": "%"}, {"measurement": "Activity", "setting": "[16]", "result": "Dde"}, {"measurement": "Activity", "setting": "[17]", "result": 3.53, "unit": "%"}, {"measurement": "Activity", "setting": "[18]", "result": "Tde"}, {"measurement": "Activity", "setting": "[19]", "result": 47.3, "unit": "%"}, {"measurement": "viability at 1 µM", "setting": "[20]", "result": 52.6, "unit": "%"}]}, {"smiles": "O=C1c2ccccc2-c2cccc3ccnc1c23", "values": [{"measurement": "inhibition", "setting": "[21]", "result": "Active"}, {"measurement": "Activity", "setting": "[22]", "result": 19.9, "unit": "%"}, {"measurement": "Activity", "setting": "[23]", "result": "Active"}, {"measurement": "Activity", "setting": "[24]", "result": "Active"}, {"measurement": "Activity", "setting": "[25]", "result": 32.9, "unit": "%"}, {"measurement": "Activity", "setting": "[26]", "result": "Active"}, {"measurement": "Activity", "setting": "[27]", "result": "Active"}, {"measurement": "Activity", "setting": "[28]", "result": "Active"}, {"measurement": "Activity", "setting": "[29]", "result": 11.7, "unit": "%"}, {"measurement": "Activity", "setting": "[30]", "result": "Active"}, {"measurement": "Activity", "setting": "[31]", "result": 54.86, "unit": "%"}, {"measurement": "viability at 10 µM", "setting": "[32]", "result": 79.1, "unit": "%"}, {"measurement": "Activity", "setting": "[33]", "result": "Active"}, {"measurement": "Activity", "setting": "[34]", "result": "Active"}, {"measurement": "Activity", "setting": "[35]", "result": "Active"}, {"measurement": "Activity", "setting": "[36]", "result": "Active"}, {"measurement": "Activity", "setting": "[37]", "result": 3.31, "unit": "%"}]}]}
